Experimental data: US9364459B2, “3-(indolyl)- or 3-(azaindolyl)- 4-arylmaleimide derivatives for use in the treatment of colon and gastric adenocarcinoma” (Johannes Gutenberg-Universität Mainz, priority 2009, dated 2016)

Tests used:
HUVEC = experiment: Nicoletti apoptosis assay (sub-G1 fraction) in HUVEC; format: cell-based, human; settings: 4 days, untreated 15.4 ± 1.5%
Experimental: (§1) Nicoletti Apoptosis Assay by Cell Cycle Analysis
(§2) Cancer cells were transferred to 12-well flat-bottomed plates. […] Subsequently, cells were incubated in 1 ml medium containing various concentrations of test compounds at 37° C. with 5% CO2. After incubation the cells were washed with PBS, trypsinized, pelleted and mixed with PI buffer (containing 0.1% sodium citrate, 0.1% triton X-100, […] propidium iodide (PI)) and incubated for 1 hour at 4° C. Cell cycle sub-G1 fraction analysis was performed as described previously (Nicoletti, I. et al. (1991) J. Immunol. Methods 139, 271-279) using a flow cytometer (BD FACS Calibur™, BD Biosciences, Heidelberg, Germany). Each experiment was done in triplicate.
The same analysis was performed with HUVEC cells. 1.5×10^4 cells were plated into each well and treated with test compounds for 4 days.
Human Umbilical Vein Endothelial Cells (HUVEC) known for mitogenic specifity for VEGF were obtained from the Department of Pathology, University Hospital of Mainz, Germany. The cells were cultured in M199 supplemented with 20% FCS, 1% Pen/Strep, 0.34% GlutaMAX-I, 25 μg/ml Endothelial Cell Growth Supplement (BD Biosciences), 25 μg/ml Heparin sodium (179 USP units/mg; Sigma, Germany) and were maintained at 37° C. and 5% CO2.

GSK-3β = GSK-3β (Homo sapiens (Human), UniProt P49841); experiment: GSK-3β kinase inhibition assay (Millipore IC50Profiler); format: biochemical; settings: for GSK-3β IC50 values, in words: Table 2
Excerpt: (§3) GSK-3β, VEGFR-2, FLT-3 Kinase Inhibition Assays
(§4) Detailed protocols can be found at: www.millipore.com/drugdiscovery/dd3/assayprotocols.

FLT-3 = FLT-3 (Homo sapiens (Human), UniProt P36888); experiment: FLT-3 kinase inhibition assay (Millipore IC50Profiler); format: biochemical; settings: for FLT-3 inhibition, in words: Table 2
Experimental: as §3
The effect of test compounds on the activity of the protein kinases GSK-3β, VEGFR-2 and FLT-3 was evaluated based on half maximal inhibitory concentration (IC50) values determined by Millipore UK Ltd; Gemini Crescent; Dundee Technology Park; Dundee DD2 1SW; UK (IC50Profiler). Detailed protocols can be found at: www.millipore.com/drugdiscovery/dd3/assayprotocols.

HT-29 = experiment: Nicoletti apoptosis assay in HT-29 cells; format: cell-based, human; settings: for Sub-G1 Fraction: HT-29
Experimental: as §1, §2

[1] = test system: HT-29 human colon adenocarcinoma cells; experiment: MTT viability assay in HT-29 cells; settings: HT-29, 72 h, read-out: Viability of HT-29 cells as determined by MTT assay
Experimental: Evaluation of Effect on Viability (MTT Assay)
The antiproliferative activity of test compounds was determined by the 3-(4,5-dimethylthiazol-2-yl)-2,5-diphenyltetrazolium bromide (MTT) assay as described previously (Mosmann, T. et al. (1983) J. Immunol. Methods 65, 55-63). Cells in the exponential growth phase were transferred to 96-well flat-bottom plates. 10,000 viable cells contained in 200 μl cell suspension were plated into each well and incubated over night. Cells were then exposed to various concentrations of test compounds (100 μl/well) for 3 days at 37° C. with 5% CO2. Subsequently, 10 μl/well MTT stock solution (5 mg/ml; Biomol, Germany) was added and the cells were incubated at 37° C. with 5% CO2 for 4 hours. 100 μl solubilization solution (10% SDS in 0.01 M HCl) was added and the cells were incubated at 37° C. with 5% CO2 over night. Plates were read on an ELISA-Reader ELX 800 (BIO-TEK Software KC 4) at 562 nm absorbance. Each experiment was done in triplicate.
HCT-116, HT-29 and SW480 cells were cultured in RPMI1640 supplemented with 10% FCS. […] All cells were maintained at 37° C. and 5% CO2.

[2] = test system: chick embryo microvessel formation; experiment: Quantitative chick embryo in vivo assay of antiangiogenic activity; settings: Gallus gallus; 26 nM drug concentration/pellet; 24 hours incubation; read-out: Inhibition of microvessel area
Experimental: Evaluation of Antiangiogenic Activity in a Quantitative Chick Embryo In Vivo Assay
The inhibition of angiogenesis (new blood vessel formation) was measured as described in WO2006/061212.

VEGFR-2 = VEGFR-2 (Homo sapiens (Human), UniProt P35968); experiment: VEGFR-2 kinase inhibition assay (Millipore IC50Profiler); format: biochemical
Excerpt: as §3, §4

[3] = Table 8, 7.9 μM test compound alone, drug-free control 3.4 ± 0.9%
[4] = Table 8, 7.9 μM test compound plus 1.18 μM irinotecan

Chain of VEGFR-2 (P35968 20-1356): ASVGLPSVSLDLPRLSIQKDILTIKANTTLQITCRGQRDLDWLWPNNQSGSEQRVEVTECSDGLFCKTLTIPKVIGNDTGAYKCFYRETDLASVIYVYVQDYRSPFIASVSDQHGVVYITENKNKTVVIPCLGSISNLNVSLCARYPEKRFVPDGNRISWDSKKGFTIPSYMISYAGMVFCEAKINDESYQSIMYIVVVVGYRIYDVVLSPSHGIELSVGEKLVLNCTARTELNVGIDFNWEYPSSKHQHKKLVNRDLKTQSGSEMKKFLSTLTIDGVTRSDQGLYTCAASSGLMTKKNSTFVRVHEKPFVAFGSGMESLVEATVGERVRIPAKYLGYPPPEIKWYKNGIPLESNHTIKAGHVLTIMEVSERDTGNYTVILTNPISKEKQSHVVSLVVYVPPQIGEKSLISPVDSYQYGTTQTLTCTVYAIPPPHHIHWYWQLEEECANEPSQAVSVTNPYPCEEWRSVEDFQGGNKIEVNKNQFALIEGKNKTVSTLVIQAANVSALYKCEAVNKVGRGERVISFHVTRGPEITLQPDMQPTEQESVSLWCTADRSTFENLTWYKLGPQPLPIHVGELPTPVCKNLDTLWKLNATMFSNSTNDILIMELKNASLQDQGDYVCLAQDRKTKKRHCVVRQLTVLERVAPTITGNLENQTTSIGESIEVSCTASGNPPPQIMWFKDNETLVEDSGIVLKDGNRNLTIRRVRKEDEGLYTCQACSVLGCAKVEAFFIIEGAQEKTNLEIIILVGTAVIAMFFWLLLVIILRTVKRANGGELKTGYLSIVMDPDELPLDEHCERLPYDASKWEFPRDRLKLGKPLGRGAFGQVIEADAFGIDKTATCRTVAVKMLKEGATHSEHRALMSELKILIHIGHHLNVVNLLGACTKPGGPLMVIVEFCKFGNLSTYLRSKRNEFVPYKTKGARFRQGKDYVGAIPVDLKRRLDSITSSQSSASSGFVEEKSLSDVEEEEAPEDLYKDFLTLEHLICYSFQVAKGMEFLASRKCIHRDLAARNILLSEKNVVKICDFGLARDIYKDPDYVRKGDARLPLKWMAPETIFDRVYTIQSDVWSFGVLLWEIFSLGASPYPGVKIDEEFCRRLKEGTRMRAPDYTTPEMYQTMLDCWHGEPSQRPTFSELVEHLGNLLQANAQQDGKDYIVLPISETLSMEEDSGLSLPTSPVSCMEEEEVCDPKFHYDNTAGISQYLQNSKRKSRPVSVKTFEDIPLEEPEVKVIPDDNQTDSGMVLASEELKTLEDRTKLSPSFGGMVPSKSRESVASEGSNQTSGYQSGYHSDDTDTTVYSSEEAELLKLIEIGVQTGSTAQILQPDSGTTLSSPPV
Chain of FLT-3 (P36888 27-993): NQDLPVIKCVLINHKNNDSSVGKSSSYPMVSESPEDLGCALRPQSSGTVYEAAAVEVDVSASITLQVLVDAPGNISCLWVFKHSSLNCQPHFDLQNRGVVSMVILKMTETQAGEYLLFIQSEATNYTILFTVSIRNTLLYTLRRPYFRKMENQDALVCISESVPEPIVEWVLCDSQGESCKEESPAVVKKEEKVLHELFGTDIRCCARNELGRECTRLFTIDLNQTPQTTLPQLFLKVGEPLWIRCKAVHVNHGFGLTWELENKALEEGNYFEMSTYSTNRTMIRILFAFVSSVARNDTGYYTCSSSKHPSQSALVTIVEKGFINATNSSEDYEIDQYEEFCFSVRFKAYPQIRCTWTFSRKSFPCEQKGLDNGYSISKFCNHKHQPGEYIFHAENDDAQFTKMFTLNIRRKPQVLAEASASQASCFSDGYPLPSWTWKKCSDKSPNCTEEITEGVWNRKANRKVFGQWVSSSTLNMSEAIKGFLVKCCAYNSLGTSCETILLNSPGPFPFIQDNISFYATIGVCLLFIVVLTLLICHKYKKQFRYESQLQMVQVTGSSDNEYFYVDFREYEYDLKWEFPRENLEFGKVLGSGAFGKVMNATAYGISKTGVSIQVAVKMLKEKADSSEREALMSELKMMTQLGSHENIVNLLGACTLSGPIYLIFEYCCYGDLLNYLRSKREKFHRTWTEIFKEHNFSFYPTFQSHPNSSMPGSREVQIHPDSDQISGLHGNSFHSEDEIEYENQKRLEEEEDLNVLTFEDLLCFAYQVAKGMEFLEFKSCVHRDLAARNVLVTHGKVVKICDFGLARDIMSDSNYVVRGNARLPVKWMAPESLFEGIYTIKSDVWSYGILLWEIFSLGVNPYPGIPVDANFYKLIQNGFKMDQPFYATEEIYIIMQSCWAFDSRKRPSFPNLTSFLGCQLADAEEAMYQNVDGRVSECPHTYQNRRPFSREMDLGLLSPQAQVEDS
Chain of GSK-3β (P49841 whole entry): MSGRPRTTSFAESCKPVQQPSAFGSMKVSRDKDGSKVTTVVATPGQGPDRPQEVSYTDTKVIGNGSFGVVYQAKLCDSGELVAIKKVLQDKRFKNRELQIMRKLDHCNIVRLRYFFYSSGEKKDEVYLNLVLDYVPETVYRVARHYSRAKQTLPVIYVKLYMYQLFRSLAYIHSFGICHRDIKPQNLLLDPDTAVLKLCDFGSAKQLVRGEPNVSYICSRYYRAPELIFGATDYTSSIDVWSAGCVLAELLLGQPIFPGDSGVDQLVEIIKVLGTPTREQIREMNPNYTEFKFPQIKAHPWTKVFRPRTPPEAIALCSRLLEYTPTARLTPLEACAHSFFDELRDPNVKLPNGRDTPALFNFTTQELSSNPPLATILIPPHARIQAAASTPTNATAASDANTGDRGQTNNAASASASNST

In the case of `COc1cc(C2=C(c3c[nH]c4ncccc34)C(=O)NC2=O)cc(OC)c1OC` [B, 3-(7-Azaindol-3-yl)-4-(3,4,5-trimethoxyphenyl)-maleinimid], the “Sub-G1 Fraction” value (HUVEC; 0.79 μM) is reported as 26.7 ± 1.9%, the “Sub-G1 Fraction” value (HUVEC; 2.6 μM) is reported as 49.2 ± 2.2% and the “Sub-G1 Fraction” value (HUVEC; 7.9 μM) is reported as 69.5 ± 3.4%. The IC50 (GSK-3β) was over 10000 nM, the IC50 (FLT-3) was 132 nM and the “FLT-3 inhibition, in words” value (FLT-3) was “most significantly inhibited”. The “Sub-G1 Fraction” value (HT-29; [3]) was 2.32 ± 1.16%, the “Sub-G1 Fraction” value (HT-29; [4]) was 22.36 ± 2.80% and the viability at 2.6 µM [1] was 65 ± 2.16%. The viability at 7.9 µM [1] was 45.5 ± 3.71%, the viability at 26 µM [1] was 38.5 ± 0.99% and the viability at 52 µM [1] was 38.1 ± 5.43%. For the same molecule, the inhibition at 0.026 µM [2] was 61%, the IC50 (VEGFR-2) was 37 nM and the “VEGFR-2 IC50 values, in words” value (VEGFR-2; Table 2) was “low nanomolar range”.

For `COc1cc(C2=C(c3cn(CCN4CCOCC4)c4ccccc34)C(=O)NC2=O)cc(OC)c1OC` [M, 3-{1-(2-morpholinoethyl)-1H-indol-3-yl}-4-(3,4,5-trimethoxyphenyl)-maleinimide], the IC50 (GSK-3β) was 657 nM, the IC50 (FLT-3) was over 10000 nM and the “Sub-G1 Fraction” value (HT-29; [3]) was 10.01 ± 2.16%. The “Sub-G1 Fraction” value (HT-29; [4]) was 56.81 ± 3.96%, the IC50 (VEGFR-2) was 9200 nM and the melting point was 238 to 239 °C.

For `COc1cc(C2=C(c3cn(CCO)c4ccccc34)C(=O)NC2=O)cc(OC)c1OC` [H, 3-(1-[2-Hydroxyethyl]-1H-indol-3-yl)-4-(3,4,5-trimethoxyphenyl)-maleinimide], the “GSK-3β IC50 values, in words” value (GSK-3β) was “low nanomolar range”, the IC50 (FLT-3) was 554 nM and the “Activity in combination with irinotecan relative to compound A, in words” value (HT-29; HT-29 cells, combination with irinotecan) was “even more potent than compound A”. The “Sub-G1 Fraction” value (HT-29; [3]) was 8.08 ± 0.77%, the “Sub-G1 Fraction” value (HT-29; [4]) was 71.28 ± 3.51% and the melting point was 195 to 196 °C.

In the case of `CCN(CC)CCNC(=O)c1c(C)[nH]c(/C=C2\C(=O)Nc3ccc(F)cc32)c1C` [sunitinib, reference compound], the “Sub-G1 Fraction” value (HT-29; Table 9, 5 μM sunitinib plus 1.18 μM Irinotecan, 7 days) is reported as 24.5 ± 1.2% and the “Sub-G1 Fraction” value (HT-29; Table 9, single-agent treatment, 5 μM sunitinib, 7 days) is reported as 11.8 ± 1.0%.

In the case of `COc1cc(C2=C(c3cn(CCN)c4ccccc34)C(=O)NC2=O)cc(OC)c1OC.Cl` [F, 3-(1-[2-Ammonioethyl]-1H-indol-3-yl)-4-(3,4,5-trimethoxyphenyl)-maleinimide-chloride], the IC50 (GSK-3β) is reported as 195 nM, the “GSK-3β IC50 values, in words” value (GSK-3β) is reported as “low nanomolar range” and the IC50 (FLT-3) is reported as 227 nM. For the same molecule, the “FLT-3 inhibition, in words” value (FLT-3) was “most significantly inhibited”, the “Sub-G1 Fraction” value (HT-29; [3]) was 5.69 ± 0.69% and the “Sub-G1 Fraction” value (HT-29; [4]) was 51.00 ± 0.56%. The IC50 (VEGFR-2) was 1880 nM.

With `COc1cc2c(Nc3ccc(Br)cc3F)ncnc2cc1OCC1CCN(C)CC1` [vandetanib, reference compound] the “Sub-G1 Fraction” value (HT-29; Table 9, 10 μM vandetanib plus 1.18 μM Irinotecan, 7 days) was 35.2 ± 0.4% and the “Sub-G1 Fraction” value (HT-29; Table 9, single-agent treatment, 10 μM vandetanib, 7 days) was 11.1 ± 1.9%.

In the case of `COc1cc(C2=C(c3c[nH]c4cccnc34)C(=O)NC2=O)cc(OC)c1OC` [E, 3-(4-Azaindol-3-yl)-4-(3,4,5-trimethoxyphenyl)-1H-pyrrol-2,5-dione], the IC50 (GSK-3β) is reported as 215 nM, the IC50 (FLT-3) is reported as 1520 nM and the “Sub-G1 Fraction” value (HT-29; [3]) is reported as 4.22 ± 0.74%. For the same molecule, the “Sub-G1 Fraction” value (HT-29; [4]) was 25.71 ± 1.97%, the viability at 2.6 µM [1] was 114 ± 5.2% and the viability at 7.9 µM [1] was 98.31 ± 0.9%. For the same molecule, the viability at 26 µM [1] was 92.6 ± 2.8%, the viability at 52 µM [1] was 65.8 ± 1.5% and the IC50 (VEGFR-2) was 373 nM. It also gave a melting point of 274 to 275 °C.

With `COc1cc(C2=C(c3cn(CCCN)c4ccccc34)C(=O)NC2=O)cc(OC)c1OC.Cl` [G, 3-(1-[3-Ammoniopropyl]-1H-indol-3-yl)-4-(3,4,5-trimethoxyphenyl)-maleinimide-chloride] the IC50 (GSK-3β) was 129 nM, the “GSK-3β IC50 values, in words” value (GSK-3β) was “low nanomolar range” and the IC50 (FLT-3) was over 1000 nM. The “Sub-G1 Fraction” value (HT-29; [3]) was 4.01 ± 0.66%, the “Sub-G1 Fraction” value (HT-29; [4]) was 56.01 ± 0.29% and the IC50 (VEGFR-2) was 1500 nM.
